Experimental data published in PubChem BioAssay (NCI).
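Briefly, cells in 96-well plates were exposed to five compound concentrations for 48 h, and endpoints were estimated by linear interpolation. The concentration for full growth arrest is given as TGI.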

Key:
Assay in all cases: growth of human tumour cells (NCI), 48 h
IGROV1 ovarian = system: IGROV1 ovarian
KM12 colon = system: KM12 colon
M14 melanoma = system: M14 melanoma
MCF7 breast = system: MCF7 breast
MDA-MB-231 breast = system: MDA-MB-231 breast
MOLT-4 leukemia = system: MOLT-4 leukemia
NCI-H23 lung = system: NCI-H23 lung
NCI-H522 lung = system: NCI-H522 lung
NCI/ADR-RES ovarian = system: NCI/ADR-RES ovarian
OVCAR-5 ovarian = system: OVCAR-5 ovarian
RXF 393 renal = system: RXF 393 renal
SF-539 CNS = system: SF-539 CNS

Row | Structure (SMILES) | TGI (IGROV1 ovarian) | TGI (KM12 colon) | TGI (M14 melanoma) | TGI (MCF7 breast) | TGI (MDA-MB-231 breast) | TGI (MOLT-4 leukemia) | TGI (NCI-H23 lung) | TGI (NCI-H522 lung) | TGI (NCI/ADR-RES ovarian) | TGI (OVCAR-5 ovarian) | TGI (RXF 393 renal) | TGI (SF-539 CNS)
1 | CCOP(=O)(CS(C)=O)O[C@@H]1C[C@H](C)CC[C@H]1C(C)C (stereo partly specified) | 10.3 µM | > 28.7 µM | 31.2 µM | 11.1 µM | 12.8 µM | > 100 µM | 17.6 µM | 6.19 µM | 26 µM | 15.2 µM | 7.83 µM | 26.9 µM
2 | CC[C@@]1(O)C(=O)OCc2c1c(Cl)c1n(c2=O)Cc2cc3ccccc3nc2-1 | 42.9 µM | > 95.5 µM | 9.04 µM | > 34.7 µM | > 100 µM | 19.3 µM | 6.24 µM | 20.8 µM | 15.1 µM | 85.8 µM | 15.1 µM | 6.09 µM
3 | CCOC(=O)CNC(=O)C(CSC(=O)N(O)c1ccc(Br)cc1)NC(=O)CCC(N)C(=O)OCC (stereo unspecified) | > 50 µM | > 50 µM | > 50 µM | > 50 µM | > 50 µM | > 50 µM | > 50 µM | > 50 µM | > 50 µM | > 50 µM | > 50 µM | > 50 µM
4 | COc1ccc(NC=O)c(C(O)CCNC(C)=O)c1 (stereo unspecified) | > 100 µM | > 100 µM | > 100 µM | > 100 µM | > 100 µM | > 100 µM | > 100 µM | > 100 µM | > 100 µM | > 100 µM | > 100 µM | > 100 µM
5 | CC(C)=CCC/C(C)=C/Cc1cc(/C=C/c2cc(O)c(CC=C(C)C)c(O)c2)cc(O)c1O | 6.81 µM | 14.7 µM | 16 µM | 13.4 µM | 23.8 µM | 11.8 µM | 11.2 µM | 0.38 µM | 13.3 µM | 15.4 µM | 8.65 µM | 13.8 µM
6 | Cc1ccc2c(ccc3c[n+]4ccccc4c(C)c32)c1 | 34.7 µM | 2.5 µM | 20.9 µM | 15.6 µM | 23.1 µM | > 100 µM | 10.9 µM | 10.7 µM | > 100 µM | 65 µM | > 100 µM | 9.83 µM
7 | CCN(CC)c1ccc(/C=C/C2=NN(c3cccc(S(=O)(=O)O)c3)C3(C2)C(Cl)C(=O)N3c2nc3ccccc3s2)cc1 (stereo unspecified) | 17 µM | 20.9 µM | 28.1 µM | 21.1 µM | 27 µM | 13.9 µM | 22.8 µM | 3.57 µM | > 79.3 µM | 58.7 µM | 21.1 µM | 10.6 µM
8 | O=c1cc(-c2ccc(O)c(O)c2)oc2cc(OC3OC(CO)C(O)C(O)C3O)cc(O)c12 (stereo unspecified) | > 100 µM | > 100 µM | > 100 µM | > 100 µM | > 100 µM | > 100 µM | > 100 µM | > 100 µM | > 100 µM | > 100 µM | > 100 µM | > 100 µM
